This is an account of results in US10112899B2 (ViiV HEALTHCARE UK LIMITED, priority 2014, dated 2018).

The experiment relates to HIV in the HTLV-1 transformed cell line MT-4. The experiment is described as follows: organism not typed. Type of experiment: cell-based. To be noted: MT4, 96 h, MT-4 cells; luciferase/cell titer glo readout after 96 hours; 10 point dose response.
For orientation: IC50 means the concentration at which inhibition is half-maximal. Consider `Cc1c(-c2c(C)c3c(c(C)c2[C@H](OC(C)(C)C)C(=O)O)CN(C(=O)c2ccc4c(cnn4C)c2)C3)cc(F)c2c1CCCO2` (atropisomer, axis not shown; (M)) [Example 154, (S)-2-(tert-butoxy)-2-((M)-6-(8-fluoro-5-methylchroman-6-yl)-4,7-dimethyl-2-(1-methyl-1H-indazole-5-carbonyl)isoindolin-5-yl)acetic acid], for which the half-maximal inhibitory concentration (IC50) was 8 nM. The compound `Cc1c(-c2c(C)c3c(c(C)c2[C@H](OC(C)(C)C)C(=O)O)CN(C(=O)c2ccccc2C(C)(C)C)C3)cc(F)c2c1CCCO2` (atropisomer, axis not shown; (M)) [Example 155, (S)-2-(tert-butoxy)-2-(2-(2-(tert-butyl)benzoyl)-6-((M)-8-fluoro-5-methylchroman-6-yl)-4,7-dimethylisoindolin-5-yl)acetic acid] showed an IC50 of 48 nM. The result for `COc1cc(C(=O)N2Cc3c(C)c(-c4cc(F)c5c(c4C)CCCO5)c([C@H](OC(C)(C)C)C(=O)O)c(C)c3C2)ccc1C` (atropisomer, axis not shown; (M)) [Example 156, (S)-2-(tert-butoxy)-2-(6-((M)-8-fluoro-5-methylchroman-6-yl)-2-(3-methoxy-4-methylbenzoyl)-4,7-dimethylisoindolin-5-yl)acetic acid] reads 3 nM. The compound `Cc1ccc(C)c(C(=O)N2Cc3c(C)c(-c4cc(F)c5c(c4C)CCCO5)c([C@H](OC(C)(C)C)C(=O)O)c(C)c3C2)c1` (atropisomer, axis not shown; (M)) [Example 157, (S)-2-(tert-butoxy)-2-(2-(2,5-dimethylbenzoyl)-6-((M)-8-fluoro-5-methylchroman-6-yl)-4,7-dimethylisoindolin-5-yl)acetic acid] gave an IC50 of 3 nM.

`Cc1c(-c2c(C)c3c(c(C)c2[C@H](OC(C)(C)C)C(=O)O)CN(C(=O)c2ccccc2)C3)cc(F)c2c1CCCO2` (atropisomer, axis not shown; (M)) [Example 158, (S)-2-(2-benzoyl-6-((M)-8-fluoro-5-methylchroman-6-yl)-4,7-dimethylisoindolin-5-yl)-2-(tert-butoxy)acetic acid] came in with an IC50 of 2 nM. The result for `COc1cccc(C(=O)N2Cc3c(C)c(-c4cc(F)c5c(c4C)CCCO5)c([C@H](OC(C)(C)C)C(=O)O)c(C)c3C2)c1` (atropisomer, axis not shown; (M)) [Example 159, (S)-2-(tert-butoxy)-2-(6-((M)-8-fluoro-5-methylchroman-6-yl)-2-(3-methoxybenzoyl)-4,7-dimethylisoindolin-5-yl)acetic acid] reads 2 nM. As for `COc1ccc(C)c(C(=O)N2Cc3c(C)c(-c4cc(F)c5c(c4C)CCCO5)c([C@H](OC(C)(C)C)C(=O)O)c(C)c3C2)c1` (atropisomer, axis not shown; (M)) [Example 160, (S)-2-(tert-butoxy)-2-(6-((M)-8-fluoro-5-methylchroman-6-yl)-2-(5-methoxy-2-methylbenzoyl)-4,7-dimethylisoindolin-5-yl)acetic acid], it took 4 nM to reach half-maximal inhibition (IC50). The value for `Cc1c(-c2c(C)c3c(c(C)c2[C@H](OC(C)(C)C)C(=O)O)CN(C(=O)c2cccc4c2CCC4)C3)cc(F)c2c1CCCO2` (atropisomer, axis not shown; (M)) [Example 161, (S)-2-(tert-butoxy)-2-(2-(2,3-dihydro-1H-indene-4-carbonyl)-6-((M)-8-fluoro-5-methylchroman-6-yl)-4,7-dimethylisoindolin-5-yl)acetic acid] was 3 nM; that for `Cc1c(-c2c(C)c3c(c(C)c2[C@H](OC(C)(C)C)C(=O)O)CN(C(=O)c2cccc4c2OC(F)(F)O4)C3)cc(F)c2c1CCCO2` (atropisomer, axis not shown; (M)) [Example 162, (S)-2-(tert-butoxy)-2-((M)-2-(2,2-difluorobenzo[d][1,3]dioxole-4-carbonyl)-6-(8-fluoro-5-methylchroman-6-yl)-4,7-dimethylisoindolin-5-yl)acetic acid] was 2 nM; that for `Cc1c(-c2c(C)c3c(c(C)c2[C@H](OC(C)(C)C)C(=O)O)CN(C(=O)c2cccc4ccccc24)C3)cc(F)c2c1CCCO2` (atropisomer, axis not shown; (M)) [Example 168, (S)-2-((M)-2-(1-naphthoyl)-6-(8-fluoro-5-methylchroman-6-yl)-4,7-dimethylisoindolin-5-yl)-2-(tert-butoxy)acetic acid] was 11 nM. The value for `Cc1c(-c2c(C)c3c(c(C)c2[C@H](OC(C)(C)C)C(=O)O)CN(C(=O)c2cccc4ccoc24)C3)cc(F)c2c1CCCO2` (atropisomer, axis not shown; (M)) [Example 169, (S)-2-((M)-2-(benzofuran-7-carbonyl)-6-(8-fluoro-5-methylchroman-6-yl)-4,7-dimethylisoindolin-5-yl)-2-(tert-butoxy)acetic acid] was 2 nM; that for `Cc1c(-c2c(C)c3c(c(C)c2[C@H](OC(C)(C)C)C(=O)O)CN(C(=O)c2cc(F)cc(F)c2)C3)cc(F)c2c1CCCO2` (atropisomer, axis not shown; (M)) [Example 170, (S)-2-(tert-butoxy)-2-((M)-2-(3,5-difluorobenzoyl)-6-(8-fluoro-5-methylchroman-6-yl)-4,7-dimethylisoindolin-5-yl)acetic acid] was 2 nM; that for `Cc1c(-c2c(C)c3c(c(C)c2[C@H](OC(C)(C)C)C(=O)O)CN(C(=O)c2ccc(F)c(Cl)c2)C3)cc(F)c2c1CCCO2` (atropisomer, axis not shown; (M)) [Example 171, (S)-2-(tert-butoxy)-2-((M)-2-(3-chloro-4-fluorobenzoyl)-6-(8-fluoro-5-methylchroman-6-yl)-4,7-dimethylisoindolin-5-yl)acetic acid] was 2 nM. The value for `Cc1c(Cl)cccc1C(=O)N1Cc2c(C)c(-c3cc(F)c4c(c3C)CCCO4)c([C@H](OC(C)(C)C)C(=O)O)c(C)c2C1` (atropisomer, axis not shown; (M)) [Example 172, (S)-2-(tert-butoxy)-2-((M)-2-(3-chloro-2-methylbenzoyl)-6-(8-fluoro-5-methylchroman-6-yl)-4,7-dimethylisoindolin-5-yl)acetic acid] was 7 nM; that for `Cc1c(-c2c(C)c3c(c(C)c2[C@H](OC(C)(C)C)C(=O)O)CN(C(=O)c2cc(F)c(F)c(F)c2)C3)cc(F)c2c1CCCO2` (atropisomer, axis not shown; (M)) [Example 173, (S)-2-(tert-butoxy)-2-((M)-6-(8-fluoro-5-methylchroman-6-yl)-4,7-dimethyl-2-(3,4,5-trifluorobenzoyl)isoindolin-5-yl)acetic acid] was 3 nM. `Cc1c(-c2c(C)c3c(c(C)c2[C@H](OC(C)(C)C)C(=O)O)CN(C(=O)c2ccc(F)cc2)C3)cc(F)c2c1CCCO2` (atropisomer, axis not shown; (M)) [Example 174, (S)-2-(tert-butoxy)-2-((M)-6-(8-fluoro-5-methylchroman-6-yl)-2-(4-fluorobenzoyl)-4,7-dimethylisoindolin-5-yl)acetic acid]: the IC50 was determined as 4 nM. The compound `Cc1c(-c2c(C)c3c(c(C)c2[C@H](OC(C)(C)C)C(=O)O)CN(C(=O)c2cc(F)c(Cl)c(F)c2)C3)cc(F)c2c1CCCO2` (atropisomer, axis not shown; (M)) [Example 175, (S)-2-(tert-butoxy)-2-((M)-2-(4-chloro-3,5-difluorobenzoyl)-6-(8-fluoro-5-methylchroman-6-yl)-4,7-dimethylisoindolin-5-yl)acetic acid] yielded an IC50 of 5 nM.
